Test results taken from a melting point compilation (Tetko et al.; mined from patent text by program, amines drawn as free bases though some values may be those of a salt).

Row | melting point | SMILES
1 | 84 to 86 °C | COC(=O)C=Cc1cc2ccccc2o1
2 | 238 to 241 °C | COc1nc(=O)n(-c2ccc(Cl)cc2)c(=O)[nH]1
3 | 167 °C | CC(O)(C(=O)Nc1ccc(Cl)cc1)c1ccc(F)cc1Cl (configuration not stated)
4 | 105 to 107 °C | COC(=O)c1ccc(OCCCCCOc2ccc(C#N)cc2)c(OC)c1
5 | 148 to 149 °C | Cc1nc(-n2cc(C(F)(F)F)ccc2=O)sc1C(=O)NCc1ccccc1
6 | 108 to 109 °C | CC1CCCC=C1c1ccc(C(=O)N2Cc3cccn3Cc3ccccc32)cc1 (configuration not stated)
7 | 152 to 153 °C | Cn1c(C(F)(F)F)cc(=O)n(-c2cc(OCC(=O)c3ccccc3)c(Cl)cc2F)c1=O
8 | 210 °C | O=C(Cc1ccccc1)N1C[C@@H]2SCCC(c3ccccc3)(c3ccccc3)[C@@H]2C1 (racemic)
9 | 81 to 83 °C | O=C(O)C(CF)=NOCC=Cc1ccccc1
10 | 99 to 101 °C | COc1ccc(C(C)(O)Cc2ccncc2)cc1OC1CCCC1 (configuration not stated)
11 | 117 to 118 °C | Clc1ccc(-c2cc[nH]c2)cc1
12 | 194 to 197 °C | Brc1ccc2c(c1Cc1cccc3cnccc13)OCO2
13 | 133 °C | COCCn1ccc2ccc(NC(=O)/C=C/c3ccc(C(C)(C)C)cc3)cc21
14 | 138 to 139 °C | CCn1c2cc(C=O)ccc2c2ccc3ccccc3c21
15 | 83 to 85 °C | CC(=O)NC1(c2ccccc2)CCN(CCC(CN2C(=O)c3ccccc3C2=O)c2ccc(Cl)c(Cl)c2)CC1 (configuration not stated)
16 | 183 to 185 °C | COC(=O)c1c(Cl)ccc(C(=O)O)c1Cl
17 | 292 to 293 °C | NNc1ccc(C(=O)O)cn1
18 | 151 to 152 °C | c1coc(-c2nnc(-n3ccnc3)c3ccccc23)c1
19 | 160 to 161 °C | CC(=O)NS(=O)(=O)c1ccc(N2CCN(CC[C@@H]3OCCc4ccccc43)CC2)cc1
20 | 113 °C | N#CCc1cccc2c(-c3ccccc3Cl)nccc12
21 | > 300 °C | O=C(O)c1ccc(C2=NCCO2)cc1
22 | 163 to 166 °C | O=C(NCc1ccc(C=NO)cc1Cl)C1CC1
23 | 213 to 214 °C | Cc1ccc(C(=O)Nc2c(NC(=O)CN3CCCCC3)ccc3c2C(=O)c2ccccc2C3=O)cc1
24 | 90 to 94 °C | CCOC(=O)Cc1c(C)n(CCCc2ccccc2)c2cccc(OCc3csc(-c4ccccc4)n3)c12
25 | 104 to 106 °C | O=C1C(CCO)Oc2ccccc2N1Cc1cc(Cl)cc(Cl)c1 (configuration not stated)

Row | melting point | SMILES
26 | 215 to 220 °C | O=C1CC2Sc3nc(=O)c4ccccc4n3C2(c2ccc(Cl)cc2)O1 (configuration not stated)
27 | 149 to 151 °C | Oc1ccc(C(c2ccc(O)cc2)c2ccccc2CN2CCN(c3ccccc3Cl)CC2)cc1
28 | 208 to 210 °C | COc1ccc(N2C(=S)N(c3ccc(Oc4ccccc4)cc3)C(=O)C2C)cc1 (configuration not stated)
29 | 196 to 197 °C | O=c1nccc2sc3cc(-c4ccccc4)ccc3n12
30 | 266 to 268 °C | O=C(c1ccc(OCC2CC2)c2oc3ccccc3c12)[NH+]([O-])c1ccncc1 (configuration not stated)
31 | 225 °C | CCOC(=O)C1=C(C)Nc2ccn(C)c(=O)c2C1c1ccccc1OC (configuration not stated)
32 | 129 to 130 °C | COc1ccccc1C(=O)c1cc2ccccc2[nH]1
33 | 174 to 175 °C | CC1(c2ccccc2)C(=O)Nc2cc(Cl)ccc2C1=O (configuration not stated)
34 | 254 to 256 °C | COc1ccnc(CSc2nc3cc(Cl)c(Cl)cc3[nH]2)c1C
35 | 88 to 90 °C | C=C(Cl)Cn1c(C)c(C)c2cnnc(OCc3ccccc3)c21
36 | 209 to 210 °C | Cc1c(C)c2c(c(C)c1NC(=O)CC(C)(C)C)OC(C)(C)C2Cc1ccccc1 (configuration not stated)
37 | 190 to 196 °C | CC(C)n1cc(C(=O)NCc2ccc(Cl)cc2)c(=O)c2cc(C#CCO)sc21
38 | 121 to 123 °C | O=C1C(=O)N(CCl)c2ccccc21
39 | 116 to 120 °C | Cc1c(F)cc(C(=O)NC2CC2)cc1-n1cc(Br)nc(NC2(c3ccccc3OCCN(C)C(=O)OCc3ccccc3)CC2)c1=O
40 | 74 to 76 °C | O=C1C=CC(=Nc2ccccc2C(=O)N2CCCCC2)C=C1
41 | 116 to 117 °C | CN(CCCCCCCC(=O)O)c1cnc(-c2ccccc2)c(-c2ccccc2)n1
42 | 157 °C | O=C(Nc1ccc(Cl)c(Cl)c1)N(O)Cc1ccccc1
43 | 150 to 152 °C | CCOC(=O)c1cc(=O)c2cc(OCC(O)COc3ccc(C#N)cc3)ccc2o1 (configuration not stated)
44 | 72 to 75 °C | COc1cc(C#N)ccc1C(Br)C(Br)C(=O)c1cccc(C#N)c1 (configuration not stated)
45 | 180 to 181 °C | COc1ccc2c3c([nH]c2c1)C(=S)C(CC1CCN(Cc2ccccc2)CC1)C3 (configuration not stated)
46 | 125 to 126 °C | CN(C)C(=O)Nc1ccc(OCCc2ccccc2)c(N)c1
47 | 248 °C | Cc1cccc(N)c1C(=O)Nc1nnn[nH]1
48 | 160 to 162 °C | Nc1nc2ccccc2c2c1ncn2CCOCCCc1ccncc1
49 | 170 to 172 °C | CCN(CC)c1ccc(F)c2nc3n(c12)CCCN3c1ccc(Cl)cc1Cl
50 | 147 to 149 °C | N=C(Nc1ccccc1)Nc1ncccc1OCc1c(F)cccc1Cl

More lines, now with the values behind:

Row | SMILES | melting point
51 | N#Cc1ncn2c(C(F)(F)F)cc(-c3cccnc3)nc12 | 222 °C
52 | N#Cc1cccc2c1CCC2=NO | 200 to 202 °C
53 | COc1cc2ncnc(NC3=CC(=O)C(N4CCCCC4)=CC3=O)c2cc1OC | 226 to 227 °C
54 | Cc1c(-c2ccccc2F)[nH]c(N)c1C#N | 117 to 118 °C
55 | N=C(N)SCc1cccc(CSC(=N)N)c1 | 216 to 218 °C
56 | CN1C(=O)C2C3C=CC(C3)C2(c2ccc(F)c(F)c2)C1=O (configuration not stated) | 116 to 120 °C
57 | Cc1c(C)c(C(=O)CCl)c(C)c(C)c1Cl | 94 to 96 °C
58 | CC(C)(C)c1cc(C=Nn2ccnc2N2CCOCC2)cc(C(C)(C)C)c1O | 185 to 187 °C
59 | COc1cc2c(cc1OC)C(c1c[nH]cn1)CCC2 (configuration not stated) | 140 °C
60 | COc1ccc(C(Cl)=C(C=O)c2ccc(OC)c(OC)c2)cc1OC | 183 to 184 °C
61 | COc1cc2c(cc1OC)-c1c(OC)c(OC)cc3c1C(C2)N(C)CC3 (configuration not stated) | 112 to 114 °C
62 | COc1ccc(C2CCN(C(=O)/C(=N/O)C(N)=O)CC2)cc1OC1CCCC1 | 109 to 111 °C
63 | CS(=O)(=O)c1ccc(-c2cnn(-c3ccc(Cl)cc3F)c(=O)c2-c2ccc(F)cc2)cc1 | 250 to 260 °C
64 | COc1cc(C(=O)O)ccc1Cc1cn(C)c2ccc(CC(C)C(=O)NCC3CCCC3)cc12 (configuration not stated) | 103 to 109 °C
65 | CCSC(=O)c1c(C(F)(F)F)nc(C(F)F)c(C(=O)OC)c1NC(C)C | 56 to 59 °C
66 | COc1ccc(Cn2c(S(=O)(=O)Cc3ccc(C)cn3)nc3cscc32)cc1 | 148 to 150 °C
67 | CN1CCC2=C(C=CCC2)C(N)C1=O (configuration not stated) | 69 to 81 °C
68 | CC1(C)CCc2[nH]cc(C(=O)O)c2C1=O | 225 to 228 °C
69 | CCOC(=O)c1ccc(OCCCCCCCCCCCOc2ccc(Cl)cc2)cc1 | 94 to 95 °C
70 | COc1cc(C(=O)C2C(=O)N(C)C(=O)N(C)C2=O)ccc1Oc1nc2ccccc2s1 | 210 to 211 °C
71 | CCCCNc1c(C(=O)OCC)c(C)nc(Cl)c1[N+](=O)[O-] | 33 to 35 °C
72 | O=C(C1CCCCC1)N1C=C2c3ccccc3CCN2C(=O)C1 | 136 to 138 °C
73 | CNC(=O)C1CN(C(=O)/C=C/C2=C(C)CCCC2(C)C)CCN1C(N)=O (configuration not stated) | 100 to 112 °C
74 | COc1ccc2c(c1)cc(C(=O)c1cc3ccccc3n1S(=O)(=O)c1ccccc1)n2S(=O)(=O)c1ccccc1 | 205 °C
75 | CCOC(=O)/C=C/c1ccc(Br)nc1 | 79 to 80 °C
76 | Cc1nonc1-n1cc(C(=O)O)c(=O)c2cc(F)c(N3CC[C@H](N)C3)c(F)c21 | 169 to 170 °C

Row | SMILES | melting point
77 | Oc1ccc2c(c1)OC=C(CN1CCN(C(c3ccc(F)cc3)c3ccc(F)cc3)CC1)O2 | 190 °C
78 | CCC1C(C)=NN=C(c2ccc(OC)c(OC)c2)c2cc(C)ccc21 (configuration not stated) | 156 to 158 °C
79 | CC(C)(O)Cn1cnc2c(N)nc3c(c21)CCCC3 | 260 to 261 °C
80 | CCOC(=O)C(=Cc1cccc([N+](=O)[O-])c1)C(=O)C(Cl)(Cl)Cl | 106 to 107 °C
81 | CC(C)n1nc(-c2nc(C3=CCN(C)CC3)c(N)nc2-c2ccccc2)ccc1=O | 209 to 211 °C
82 | CC(C)OC(=O)C=Cc1cc(-n2c(=O)cc(C(F)(F)F)n(C)c2=O)c(F)cc1Cl | 137 to 139 °C
83 | N=C(NO)c1cnc(N)nc1 | 218 °C
84 | CCOC(CN1C(=O)C2=C(c3ccc(Br)cc3)N(CC(OCC)OCC)C(=O)C2=C1c1ccc(Br)cc1)OCC | 198 to 201 °C
85 | O=C1c2cccc3cc4ccccc4c(c23)C(=O)N1CCCNCCCCNCCCN1C(=O)c2cccc3cc4ccccc4c(c23)C1=O | 183 °C
86 | N=C(N)c1ccc(N2CC(CN3CCC(CC(=O)O)(C(=O)O)CC3)OC2=O)cc1 (configuration not stated) | 145 °C
87 | CC(C)n1c(=O)n(C(=O)NCC2CCN(CC3(C(=O)O)CCCCC3)CC2)c2ccccc21 | 151 °C
88 | CCOc1ccc(-c2nc(CCl)cs2)cc1OCC | 81.5 to 82.3 °C
89 | Cc1nn(C)c(C(=O)N(C)C)c1[N+](=O)[O-] | 57 to 59.5 °C
90 | CC(C)(C)OC(=O)NC[C@H]1CC[C@H](CO)CC1 | 88 to 89 °C
91 | CCOCc1nc2c(cc(C)n3nnnc23)n1CC(C)C | 158 to 160 °C
92 | CC(C)S(=O)(=O)Oc1cn(C)c2cc(F)ccc2c1=O | 130 to 133 °C
93 | COc1ccc(S(=O)(=O)N2CCc3cccc(-c4ccc(C(=O)O)cc4)c32)cc1 | 130 to 132 °C
94 | COc1c(Cl)ccnc1CO | 64 to 66 °C
95 | O=S(=O)(c1ccc(Cn2cnnn2)cc1)C1CCN(CCc2ccc(F)cc2F)CC1 | 168 to 169 °C
96 | C=CCn1cnnc1-c1c(Cl)c(Cl)cc2nc(OC)c(OC)nc12 | 206 to 208 °C
97 | COc1ccccc1I | 44.5 to 46.5 °C
98 | CCc1cc(C(=O)OC(C)C)c2cc(C(C)C)cccc1-2 | 69 to 71 °C
99 | CCCCn1cc(C(=O)O)c2ccccc21 | 124 to 126 °C
100 | CNC(=Nc1cc(Cl)ccc1N1CCOCC1)NC | 145 to 146 °C
101 | COc1ccc([C@@H]2Cc3c(cccc3C(F)(F)F)N(CC3=NCCN3C(=O)OC(C)(C)C)C(=O)[C@@H]2O)cc1 | 116 °C
102 | N#Cc1cn(C2CC2)c2c(F)c(F)c(F)cc2c1=O | 213 to 215 °C
